# pIC50: −log10 of the molar value.
# Molecular target: T1, full length active recombinant SYK enzyme (Homo sapiens, UniProt P43405)
# T1 construct: full length active recombinant SYK enzyme (Millipore, Calif.); purchased Millipore
# Assay: Inhibition of Syk tyrosine phosphorylation activity (LANCE TR-FRET kinase assay)
# Assay type: biochemical
# Outline: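 Full-length active recombinant SYK (1 nM) phosphorylated biotinylated SYK-specific peptide (550 nM) with 100 μM ATP in 50 mM Tris pH 7.5, 5 mM MgCl2, 1 mM DTT, 3% DMSO, 1 h at room temperature. EDTA quench with Eu-anti-phosphotyrosine and SA-APC, 1 h TR-FRET read; IC50 by non-linear regression.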
row,SMILES,pIC50
1,"CC[C@@H](Nc1nc(Nc2ccc3c(c2)OCO3)c(C(N)=O)c(=O)[nH]1)C(N)=O [Example 76, (R)-2-(1-amino-1-oxobutan-2-ylamino)-4-(benzo[d][1,3]dioxol-5-ylamino)-6-oxo-1,6-dihydropyrimidine-5-carboxamide]",8.00 to 9.00
2,"COc1cccc(Nc2nc(N[C@H](CC(C)C)C(N)=O)[nH]c(=O)c2C(N)=O)c1 [Example 77, (R)-2-(1-amino-4-methyl-1-oxopentan-2-ylamino)-4-(3-methoxyphenylamino)-6-oxo-1,6-dihydropyrimidine-5-carboxamide]",8.00 to 9.00
3,"CC(C)C[C@@H](Nc1nc(Nc2ccc3c(c2)OCCO3)c(C(N)=O)c(=O)[nH]1)C(N)=O [Example 78, (R)-2-(1-amino-4-methyl-1-oxopentan-2-ylamino)-4-(2,3-dihydrobenzo[b][1,4]dioxin-6-ylamino)-6-oxo-1,6-dihydropyrimidine-5-carboxamide]",8.00 to 9.00
4,"CC(C)C[C@@H](Nc1nc(Nc2ccc3c(c2)OCO3)c(C(N)=O)c(=O)[nH]1)C(N)=O [Example 79, (R)-2-(1-amino-4-methyl-1-oxopentan-2-ylamino)-4-(benzo[d][1,3]-dioxol-5-ylamino)-6-oxo-1,6-dihydropyrimidine-5-carboxamide]",> 9.00
5,"CC(C)C[C@@H](Nc1nc(Nc2cccc(-c3ncccc3F)c2)c(C(N)=O)c(=O)[nH]1)C(N)=O [Example 80, (R)-2-(1-amino-4-methyl-1-oxopentan-2-ylamino)-6-oxo-4-(3-(3-fluoropyridin-2-yl)phenylamino)-1,6-dihydropyrimidine-5-carboxamide]",8.00 to 9.00
6,"CC[C@@H](Nc1nc(Nc2cccc(-c3ncccc3F)c2)c(C(N)=O)c(=O)[nH]1)C(N)=O [Example 81, (R)-2-(1-amino-1-oxobutan-2-ylamino)-6-oxo-4-(3-(3-fluoropyridin-2-yl)phenylamino)-1,6-dihydropyrimidine-5-carboxamide]",8.00 to 9.00
7,"COc1ccc(Nc2nc(N[C@H](CC(C)C)C(N)=O)[nH]c(=O)c2C(N)=O)cc1OC [Example 83, (R)-2-(1-amino-4-methyl-1-oxopentan-2-ylamino)-4-(3,4-dimethoxyphenylamino)-6-oxo-1,6-dihydropyrimidine-5-carboxamide]",> 9.00
8,"CC[C@@H](Nc1nc(Nc2ccc3c(c2)OCCO3)c(C(N)=O)c(=O)[nH]1)C(N)=O [Example 86, (R)-2-(1-amino-1-oxobutan-2-ylamino)-4-(2,3-dihydrobenzo[b][1,4]dioxin-6-ylamino)-6-oxo-1,6-dihydropyrimidine-5-carboxamide]",8.00 to 9.00
9,"CC(C)C[C@@H](Nc1nc(Nc2cccc(OC(F)F)c2)c(C(N)=O)c(=O)[nH]1)C(N)=O [Example 87, (R)-2-(1-amino-4-methyl-1-oxopentan-2-ylamino)-4-(3-(difluoromethoxy)phenylamino)-6-oxo-1,6-dihydropyrimidine-5-carboxamide]",8.00 to 9.00
10,"CC[C@@H](Nc1nc(Nc2cccc(OC(F)F)c2)c(C(N)=O)c(=O)[nH]1)C(N)=O [Example 88, (R)-2-(1-amino-1-oxobutan-2-ylamino)-4-(3-(difluoromethoxy)phenylamino)-6-oxo-1,6-dihydropyrimidine-5-carboxamide]",8.00 to 9.00
11,"COc1ccc(Nc2nc(N[C@H](CC(C)C)C(N)=O)[nH]c(=O)c2C(N)=O)cc1 [Example 89, (R)-2-(1-amino-4-methyl-1-oxopentan-2-ylamino)-4-(4-methoxyphenylamino)-6-oxo-1,6-dihydropyrimidine-5-carboxamide]",8.00 to 9.00
12,"CC[C@@H](Nc1nc(Nc2ccc(OC)cc2)c(C(N)=O)c(=O)[nH]1)C(N)=O [Example 90, (R)-2-(1-amino-1-oxobutan-2-ylamino)-4-(4-methoxyphenylamino)-6-oxo-1,6-dihydropyrimidine-5-carboxamide]",8.00 to 9.00
13,"CC(C)C[C@@H](Nc1nc(Nc2ccc(OC(F)(F)F)cc2)c(C(N)=O)c(=O)[nH]1)C(N)=O [Example 91, (R)-2-(1-amino-4-methyl-1-oxopentan-2-ylamino)-4-(4-(trifluoromethoxy)phenylamino)-6-oxo-1,6-dihydropyrimidine-5-carboxamide]",8.00 to 9.00
14,"CC[C@@H](Nc1nc(Nc2ccc(OC(F)(F)F)cc2)c(C(N)=O)c(=O)[nH]1)C(N)=O [Example 92, (R)-2-(1-amino-1-oxobutan-2-ylamino)-4-(4-(trifluoromethoxy)phenylamino)-6-oxo-1,6-dihydropyrimidine-5-carboxamide]",8.00 to 9.00
15,"COCCOc1ccc(Nc2nc(N[C@H](CC(C)C)C(N)=O)[nH]c(=O)c2C(N)=O)cc1 [Example 93, (R)-2-(1-amino-4-methyl-1-oxopentan-2-ylamino)-4-(4-(2-methoxyethoxy)phenylamino)-6-oxo-1,6-dihydropyrimidine-5-carboxamide]",8.00 to 9.00
16,"CC[C@@H](Nc1nc(Nc2ccc(OCCOC)cc2)c(C(N)=O)c(=O)[nH]1)C(N)=O [Example 94, (R)-2-(1-amino-1-oxobutan-2-ylamino)-4-(4-(2-methoxyethoxy)phenylamino)-6-oxo-1,6-dihydropyrimidine-5-carboxamide]",8.00 to 9.00
17,"NC(=O)c1c(Nc2cccc(-c3ccccn3)c2)nc(N[C@H](CC2CC2)C(N)=O)[nH]c1=O [Example 95, (R)-2-(1-amino-3-cyclopropyl-1-oxopropan-2-ylamino)-6-oxo-4-(3-(pyridin-2-yl)phenylamino)-1,6-dihydropyrimidine-5-carboxamide]",8.00 to 9.00
18,"CC(C)[C@@H](Nc1nc(Nc2cccc(-c3ccccn3)c2)c(C(N)=O)c(=O)[nH]1)C(N)=O [Example 96, (R)-2-(1-amino-3-methyl-1-oxobuan-2-ylamino)-6-oxo-4-(3-(pyridin-2-yl)phenylamino)-1,6-dihydropyrimidine-5-carboxamide]",8.00 to 9.00
19,"CC(C)C[C@@H](Nc1nc(Nc2cccc(-c3cccnc3)c2)c(C(N)=O)c(=O)[nH]1)C(N)=O [Example 97, (R)-2-(1-amino-4-methyl-1-oxopentan-2-ylamino)-6-oxo-4-(3-(pyridin-3-yl)phenylamino)-1,6-dihydropyrimidine-5-carboxamide]",8.00 to 9.00
20,"COCCOc1cccc(Nc2nc(N[C@H](CC(C)C)C(N)=O)[nH]c(=O)c2C(N)=O)c1 [Example 98, (R)-2-(1-amino-4-methyl-1-oxopentan-2-ylamino)-4-(3-(2-methoxyethoxy)phenylamino)-6-oxo-1,6-dihydropyrimidine-5-carboxamide]",8.00 to 9.00
21,"CC[C@@H](Nc1nc(Nc2cccc(OCCOC)c2)c(C(N)=O)c(=O)[nH]1)C(N)=O [Example 99, (R)-2-(1-amino-1-oxobutan-2-ylamino)-4-(3-(2-methoxyethoxy)phenylamino)-6-oxo-1,6-dihydropyrimidine-5-carboxamide]",8.00 to 9.00
22,"CNC(=O)[C@@H](CC(C)C)Nc1nc(Nc2cccc(-c3ccccn3)c2)c(C(N)=O)c(=O)[nH]1 [Example 100, (R)-2-(4-methyl-1-(methylamino)-1-oxopentan-2-ylamino)-6-oxo-4-(3-(pyridin-2-yl)phenylamino)-1,6-dihydropyrimidine-5-carboxamide]",< 6.00
23,"CC(C)C[C@@H](Nc1nc(Nc2cccc(OC(F)(F)F)c2)c(C(N)=O)c(=O)[nH]1)C(N)=O [Example 101, (R)-2-(1-amino-4-methyl-1-oxopentan-2-ylamino)-4-(3-(trifluoromethoxy)phenylamino)-6-oxo-1,6-dihydropyrimidine-5-carboxamide]",8.00 to 9.00

# — patent publication US20130317029A1 (PORTOLA PHARMACEUTICALS, INC., priority 2010, published 2013)
